Test [1] has as its target T1, recombinant active human PAI-1 (Homo sapiens (Human), UniProt P05121). The experiment in a line: pH dependence of PAI-1 inhibition, fluorogenic uPA (or tPA) assay. The test is classed as biochemical. The note with it: pH 7.5 (FIG. 8); additional experiments.
The target in test [2] is T1, recombinant active human PAI-1. The experiment in a line: β-trypsin screening assay for PAI-1 inhibitors.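 Also: fluorogenic readout with PAI-1 and β-trypsin at 10:1 molar ratio, untreated PAI-1 wells set as 100% PAI-1 activity and β-trypsin alone as 0%.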 The class given is biochemical.
The mark [3] stands for this setting: 10 μM compound, hit = more than 3 standard deviations above control.

Counter-ions that a name gives are not always drawn. Like-named read-outs stand apart in the source and are kept apart here.

T1 sequence (P05121 24-402): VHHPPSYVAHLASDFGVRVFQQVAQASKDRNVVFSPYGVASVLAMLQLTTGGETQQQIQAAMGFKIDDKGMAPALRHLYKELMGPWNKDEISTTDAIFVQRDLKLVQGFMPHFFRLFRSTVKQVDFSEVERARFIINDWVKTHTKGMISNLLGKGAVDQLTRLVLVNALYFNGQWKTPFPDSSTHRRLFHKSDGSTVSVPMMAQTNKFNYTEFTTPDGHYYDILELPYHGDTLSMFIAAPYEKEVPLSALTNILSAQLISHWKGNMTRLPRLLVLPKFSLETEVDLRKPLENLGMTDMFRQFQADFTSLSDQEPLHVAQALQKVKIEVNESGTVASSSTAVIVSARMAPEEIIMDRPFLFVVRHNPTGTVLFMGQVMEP

Take `O=C(OC[C@H]1OC(OC(=O)c2cc(O)c(O)c(O)c2)[C@H](OC(=O)c2cc(O)c(O)c(O)c2)[C@@H](OC(=O)c2cc(O)c(O)c(O)c2)[C@@H]1OC(=O)c1cc(O)c(O)c(O)c1)c1cc(O)c(O)c(O)c1` (some centres unmarked) [CDE-001]: the “PAI-1 inhibitory efficacy (in words)” value in test [1] is “effective PAI-1 inhibitors”.

For the compound `O=C(OC[C@H]1O[C@@H](OC(=O)c2cc(O)c(O)c(O)c2)[C@@H](OC(=O)c2cc(O)c(O)c(O)c2)[C@@H](OC(=O)c2cc(O)c(O)c(O)c2)[C@@H]1OC(=O)c1cc(O)c(O)c(O)c1)c1cc(O)c(O)c(O)c1` [CDE-002], the “PAI-1 inhibitory efficacy (in words)” value in test [1] is recorded as “effective PAI-1 inhibitors”.

Consider `O=C(OC[C@H]1O[C@H](OC(=O)c2cc(O)c(O)c(O)c2)[C@H](OC(=O)c2cc(O)c(O)c(O)c2)[C@@H](OC(=O)c2cc(O)c(O)c(O)c2)[C@H]1OC(=O)c1cc(O)c(O)c(O)c1)c1cc(O)c(O)c(O)c1` [CDE-003], for which the “PAI-1 inhibitory efficacy (in words)” value in test [1] is “effective PAI-1 inhibitors”.

In the case of `CN1[C@H]2CCC[C@H]1CC(NC(=O)c1nn(C)c3ccccc13)C2.Cl` (some centres unmarked) [GRANISETRON HCl], the “screening hit: restoration of β-trypsin activity” value (from here on “screening hit: restoration”) in test [2] (setting [3]) is “demonstrate PAI-1 inhibitor activity”.

With `Oc1cc2c(cc1O)C1c3ccc(O)c(O)c3OCC1(O)C2` (centres unmarked) [HAEMATOXYLIN], in test [2] (setting [3]), the “screening hit: restoration” value is recorded as “demonstrate PAI-1 inhibitor activity”.

`CC1=NCCc2c1[nH]c1cc(O)ccc21.Cl` [HARMALOL HYDROCHLORIDE]: the “screening hit: restoration” value in test [2] (setting [3]) was “demonstrate PAI-1 inhibitor activity”.

Regarding `O=C1C=C2CC3(O)COc4c(ccc(O)c4O)C3=C2C=C1O` (centres unmarked) [HEMATEIN], the “screening hit: restoration” value in test [2] (setting [3]) was “demonstrate PAI-1 inhibitor activity”.

Regarding `O=c1cc(-c2cc(O)c(O)c(O)c2)oc2cc(O)cc(O)c12` [HIERACIN], the “screening hit: restoration” value in test [2] (setting [3]) is reported as “demonstrate PAI-1 inhibitor activity”.

Turning to `COc1cc(-c2coc3cc(OCc4ccccc4)c(OC)c(O)c3c2=O)cc(OCc2ccccc2)c1OC` [IRIGENIN, DIBENZYL ETHER], the “screening hit: restoration” value in test [2] (setting [3]) is listed as “demonstrate PAI-1 inhibitor activity”.

With `O=c1c(-c2cc(O)c(O)c(O)c2)coc2cc(O)c(O)c(O)c12` [IRIGENOL], the “screening hit: restoration” value in test [2] (setting [3]) is “demonstrate PAI-1 inhibitor activity”.

On to `CC(=O)Oc1cc(-c2coc3cc(OC(C)=O)c(OC(C)=O)c(OC(C)=O)c3c2=O)cc(OC(C)=O)c1OC(C)=O` [IRIGINOL HEXAACEATATE], for which, in test [2] (setting [3]), the “screening hit: restoration” value was “demonstrate PAI-1 inhibitor activity”.

On to `COc1ccc(-c2coc3cc(O)ccc3c2=O)c(O)c1O` [KOPARIN], for which the “screening hit: restoration” value in test [2] (setting [3]) is given as “demonstrate PAI-1 inhibitor activity”.

With `CCOC(=O)C1=C(C)N=C(C)/C(=C(/O)OCC)C1c1ccccc1/C=C/C(=O)OC(C)(C)C` (centres unmarked) [LACIDIPINE], in test [2] (setting [3]), the “screening hit: restoration” value is reported as “demonstrate PAI-1 inhibitor activity”.

As to `C=C[C@@](C)(O)CC[C@H]1C(=C)C[C@H](O)[C@H]2C(C)(C)CCC[C@]12C` [LARIXOL], the “screening hit: restoration” value in test [2] (setting [3]) was “demonstrate PAI-1 inhibitor activity”.

As to `CC(C)(C)NC[C@H](O)c1ccc(O)c(CO)c1` [LEVALBUTEROL HYDROCHLORIDE], the “screening hit: restoration” value in test [2] (setting [3]) is recorded as “demonstrate PAI-1 inhibitor activity”.

Take `CCOC(=O)N1CCC(=C2c3ccc(Cl)cc3CCc3cccnc32)CC1` [LORATADINE]: the “screening hit: restoration” value in test [2] (setting [3]) was “demonstrate PAI-1 inhibitor activity”.

As to `CC(C(=O)[O-])c1ccc(CC2CCCC2=O)cc1.[Na+]` (centres unmarked) [LOXOPROFEN SODIUM], in test [2] (setting [3]), the “screening hit: restoration” value was “demonstrate PAI-1 inhibitor activity”.

As to `CC12CC3CC(C)(C1)CC(N)(C3)C2` [MEMANTINE HYDROCHLORIDE], the “screening hit: restoration” value in test [2] (setting [3]) is “demonstrate PAI-1 inhibitor activity”.

As to `C=C1c2cccc(O)c2C(=O)C2=C(O)[C@]3(O)C(=O)C(C(N)=O)=C(O)[C@@H](N(C)C)[C@@H]3[C@@H](O)[C@H]12` [METHACYCLINE HYDROCHLORIDE], in test [2] (setting [3]), the “screening hit: restoration” value is reported as “demonstrate PAI-1 inhibitor activity”.

As for `NC[C@H](O)c1ccc(O)c(O)c1` [NOREPINEPHRINE], in test [2] (setting [3]), the “screening hit: restoration” value is recorded as “demonstrate PAI-1 inhibitor activity”.

For the compound `Cc1cc(O)c(C=O)c2c1C(=O)Oc1c(C)c(O)c3c(c1O2)C(O)OC3=O` (centres unmarked) [NORSTICTIC ACID], the “screening hit: restoration” value in test [2] (setting [3]) is given as “demonstrate PAI-1 inhibitor activity”.

As for `CN(C)C(=S)SSC(=S)N(C)C` [NSC 1771], the “screening hit: restoration” value in test [2] (setting [3]) was “demonstrate PAI-1 inhibitor activity”.

On to `CCc1oc2ccccc2c1C(=O)c1cc(Br)c(O)c(Br)c1` [NSC 85433], for which the “screening hit: restoration” value in test [2] (setting [3]) is “demonstrate PAI-1 inhibitor activity”.

For the compound `O=c1c(O)c(-c2ccc(O)c(O)c2)oc2cc(O)ccc12` [NSC 407010], the “screening hit: restoration” value in test [2] (setting [3]) is given as “demonstrate PAI-1 inhibitor activity”.

In the case of `NC(=O)N1c2ccccc2CC(=O)c2ccccc21` [OXCARBAZEPINE], the “screening hit: restoration” value in test [2] (setting [3]) is listed as “demonstrate PAI-1 inhibitor activity”.

For the compound `Clc1ccc(CONC(Cn2ccnc2)c2ccc(Cl)cc2Cl)c(Cl)c1.O=[N+]([O-])O` (centres unmarked) [OXICONAZOLE NITRATE], in test [2] (setting [3]), the “screening hit: restoration” value is given as “demonstrate PAI-1 inhibitor activity”.

With `NCCc1cc(O)c(O)cc1O` [OXIDOPAMINE HYDROCHLORIDE], the “screening hit: restoration” value in test [2] (setting [3]) is listed as “demonstrate PAI-1 inhibitor activity”.

Take `N=C1C=CC(=C(c2ccc(N)cc2)c2ccc(N)cc2)C=C1` [PARAROSANILINE PAMOATE]: in test [2] (setting [3]), the “screening hit: restoration” value is given as “demonstrate PAI-1 inhibitor activity”.

For the compound `C[C@H]1COc2c(C3(N)CC3)c(F)cc3c(=O)c(C(=O)O)cn1c23` [PAZUFLOXACIN], the “screening hit: restoration” value in test [2] (setting [3]) is on record as “demonstrate PAI-1 inhibitor activity”.

In the case of `CCOP(=S)(OCC)SCSCC` [PHORATE], the “screening hit: restoration” value in test [2] (setting [3]) was “demonstrate PAI-1 inhibitor activity”.

In the case of `CN1CCN(CC(=O)N2c3ccccc3C(=O)Nc3cccnc32)CC1` [PIRENZEPINE HYDROCHLORIDE], in test [2] (setting [3]), the “screening hit: restoration” value is recorded as “demonstrate PAI-1 inhibitor activity”.

Turning to `CCN(CC)CCNC(=O)c1ccc(N)cc1` [PROCAINAMIDE HYDROCHLORIDE], the “screening hit: restoration” value in test [2] (setting [3]) is on record as “demonstrate PAI-1 inhibitor activity”.

Take `O=c1c(O)cccc2cc(O)c(O)c(O)c12` [PURPUROGALLIN]: the “screening hit: restoration” value in test [2] (setting [3]) was “demonstrate PAI-1 inhibitor activity”.

`CCN(CC)CCCC(C)Nc1c2ccc(Cl)cc2nc2ccc(OC)cc12` (centres unmarked) [QUINACRINE HYDROCHLORIDE]: the “screening hit: restoration” value in test [2] (setting [3]) is “demonstrate PAI-1 inhibitor activity”.

On to `O=C1c2ccc(O)c(O)c2C(=O)c2c(O)ccc(O)c21` [QUINALIZARIN, quinalizarin], for which, in test [2] (setting [3]), the “screening hit: restoration” value was “demonstrate PAI-1 inhibitor activity”.

For the compound `C=C[C@H]1CN2CC[C@H]1C[C@H]2[C@H](OC(=O)OCC)c1ccnc2ccc(OC)cc12` [QUININE ETHYL CARBONATE], the “screening hit: restoration” value in test [2] (setting [3]) was “demonstrate PAI-1 inhibitor activity”.

Consider `COc1ccc2[nH]cc(C3=CCNCC3)c2c1` [RU 24969], for which the “screening hit: restoration” value in test [2] (setting [3]) is recorded as “demonstrate PAI-1 inhibitor activity”.

Turning to `O=C(O)c1cc(O)c2c(c1)[C@H]([C@H]1c3cc(C(=O)O)cc(O)c3C(=O)c3c(O[C@@H]4O[C@H](CO)[C@@H](O)[C@H](O)[C@H]4O)cccc31)c1cccc(O[C@@H]3O[C@H](CO)[C@@H](O)[C@H](O)[C@H]3O)c1C2=O` [SENNOSIDE A], the “screening hit: restoration” value in test [2] (setting [3]) is recorded as “demonstrate PAI-1 inhibitor activity”.

`CC12CCC3C(CCC4(O)CC(O)CCC34/C=N/NC(N)=O)C1(O)CCC2C1=CC(=O)OC1` (centres unmarked) [STROPHANTHIDIN SEMICARBAZIDE]: the “screening hit: restoration” value in test [2] (setting [3]) was “demonstrate PAI-1 inhibitor activity”.

For the compound `O=c1c(O)cccc2c([C@H]3Oc4cc(O)cc(O)c4C[C@H]3O)cc(O)c(O)c12` [THEAFLAVANIN], the “screening hit: restoration” value in test [2] (setting [3]) was “demonstrate PAI-1 inhibitor activity”.

Take `O=C(O[C@H]1Cc2c(O)cc(O)cc2O[C@H]1c1cc(O)c(=O)c2c(O)c(O)cc([C@@H]3Oc4cc(O)cc(O)c4C[C@@H]3O)c2c1)c1cc(O)c(O)c(O)c1` [THEAFLAVIN MONOGALLATES]: in test [2] (setting [3]), the “screening hit: restoration” value is listed as “demonstrate PAI-1 inhibitor activity”.

Turning to `O=c1c(O)cc([C@H]2Oc3cc(O)cc(O)c3C[C@H]2O)cc2c([C@H]3Oc4cc(O)cc(O)c4C[C@H]3O)cc(O)c(O)c12` [THEAFLAVIN], in test [2] (setting [3]), the “screening hit: restoration” value is given as “demonstrate PAI-1 inhibitor activity”.

As to `CN1[C@@H]2CC[C@H]1C[C@@H](OC(=O)c1c[nH]c3ccccc13)C2.Cl` [TROPISETRON HCl], the “screening hit: restoration” value in test [2] is “demonstrate PAI-1 inhibitor activity”.

For `CC(CCC(=O)O)[C@H]1CCC2C3CCC4CCCC[C@]4(C)C3CC[C@@]21C` (some centres unmarked) [URSOCHOLANIC ACID], the “screening hit: restoration” value in test [2] (setting [3]) is “demonstrate PAI-1 inhibitor activity”.

Regarding `Cc1onc(-c2ccccc2)c1-c1ccc(S(N)(=O)=O)cc1` [VALDECOXIB], the “screening hit: restoration” value in test [2] (setting [3]) was “demonstrate PAI-1 inhibitor activity”.

With `CC[C@@]1(O)C[C@@H]2CN(CCc3c([nH]c4ccccc34)[C@](C(=O)OC)(c3cc4c(cc3OC)N(C)[C@@H]3[C@]45CCN4CC=C[C@@](CC)(C(O)[C@]3(O)C(N)=O)[C@H]45)C2)C1.O=S(=O)(O)O` (some centres unmarked) [VINDESINE SULFATE], in test [2] (setting [3]), the “screening hit: restoration” value is on record as “demonstrate PAI-1 inhibitor activity”.

`Cc1cc(C(C)(C)C)cc(C)c1CC1=NCCN1` [XYLOMETAZOLINE HYDROCHLORIDE]: the “screening hit: restoration” value in test [2] (setting [3]) is “demonstrate PAI-1 inhibitor activity”.

As for `COc1cc(C(=O)NS(=O)(=O)c2ccccc2C)ccc1Cc1cn(C)c2ccc(NC(=O)OC3CCCC3)cc12` [ZAFIRLUKAST], the “screening hit: restoration” value in test [2] (setting [3]) is “demonstrate PAI-1 inhibitor activity”.

Consider CHLORAMPHENICOL HEMISUCCINATE, for which the “screening hit: restoration” value in test [2] (setting [3]) was “demonstrate PAI-1 inhibitor activity”.

In the case of SAPPANONE A DIMETHYL ETHER, the “screening hit: restoration” value in test [2] (setting [3]) was “demonstrate PAI-1 inhibitor activity”.

For the origin of these results see patent US9120744B2, “Plasminogen activator inhibitor-1 inhibitors and methods of use thereof to modulate lipid metabolism” (THE REGENTS OF THE UNIVERSITY OF MICHIGAN, priority 2007, dated 2015).
